Test results published in US8592394B2, “Synthetic derivatives beta glycolipids and compositions thereof for the treatment of pathologic disorders” (Enzo Therapeutics, Inc., priority 2003, dated 2013).

Key:
[1] = tested on: ob/ob mice; experiment: Serum ALT and AST (hepatic injury) in ob/ob mice; type: in vivo; conditions: for serum AST: vehicle group A 710
Description: (§1) The effect of β-glycolipids on liver injury was evaluated by serum aspartyl transaminase (AST) and alanine aminotransferase (ALT) activities, which were determined by a clinical chemistry analyzer, Reflovet Plus (Roche Diagnostics, GmbH, Mannheim, Germany).
Therefore, five groups of male C57BL/6 Ob/Ob mice were studied. Mice (6 per group) were fed (per os) daily for 4 weeks with 15 or 45 μg of GC (groups B and C, respectively) and 15 or 45 μg of ALIB-97 (groups D and E, respectively). Control mice (Group A) were administered vehicle only.

[2] = tested on: ConA induced hepatitis; experiment: ConA induced hepatitis model: serum AST and ALT (liver injury); type: in vivo, mice; conditions: for enzyme levels (serum ALT and AST): Con A
Description: as §1
Con A was purchased from MP Biomedicals (Ohio, USA), was dissolved (0.5 mg, 20 mg/kg) in 200 μl of 50 mM Tris pH 7, 150 mM NaCl, 4 mM CaCl2, and was injected intravenously into mice (tail vain). Sera from individual mice were obtained 8 or 20 h after Con A injection. Serum activities of alanine aminotransferase (ALT) and aspartate aminotransferase (AST) were measured by an automatic analyzer.
To determine the clinical and immunological effect of the novel synthetic compounds of the invention, immune-mediated hepatitis was examined using the ConA induced hepatitis model. Therefore, the different synthetic and natural derivatives of β-glycolipids of Formula II, III and IV [AD2897 (ALIB-97), AD2898, and AD2899, respectively], were examined using seven groups of C57Bl/6 mice, as summarized by Table 1. Mice in experimental groups A-G (eight mice in each group) were injected with ConA. Group A mice were administered with 100 μl intraperitoneal injection of solvent only [15% Cremophor EL/15% ethanol/70% PBS](C:E). Mice in groups B, C, D, E, F, and G were administered with intraperitoneal injection of 1 μg or 10 μg of each of the three analogs Formulated in solvent as described in Experimental Procedures. Animals were sacrificed and examined.
In order to evaluate the potential beneficial effect of the three novel analogues of the invention on immune-mediated hepatitis, the effect of treatment with two concentrations of the three synthetic analogs on liver damage in all tested groups was assessed by determination of serum aspartate aminotransferase (AST), and alanine aminotransferase (ALT) levels.

[3] = tested on: IFN-γ; experiment: Serum IFN-γ by sandwich ELISA in ConA induced hepatitis; type: in vivo, mice
Description: (§2) Serum levels of IFN-γ, TGF-β, TNF-α IL-2, IL-4, IL-6, IL-10 and IL-12 were determined by “sandwich” ELISA, using commercial kits (Quantikine, R&D Systems, Minneapolis, Minn., USA). Serum insulin was also determined by “sandwich” ELISA too, using the commercial kit of Mercodia AB (Uppsala, Sweden) according to the manufacturer's instructions.
(§3) Assessment of the effect of any of the synthetic analogs on the immune response was next determined by analysis of the cytokine serum level of IFNγ in each animal using a commercial “sandwich” ELISA kit, and by FACS analysis of intrahepatic and intrasplenic (peripheral) lymphocytes levels.

[4] = tested on: intrahepatic and intrasplenic lymphocytes; experiment: FACS analysis of intrahepatic and intrasplenic lymphocytes (NKT, CD4, CD8); type: in vivo, mice
Description: Splenocytes and intrahepatic lymphocytes were isolated as follows: livers and spleens were kept in RPMI-1640+FCS. Then spleens were crushed through a 70 μm nylon cell strainer (Falcon) and centrifuged (1250 rpm for 7 min) for the removal of cell debris. Red blood cells were lysed with 1 ml of cold 155 mM ammonium chloride lysis buffer and centrifuged (1250 rpm for 3 min). Splenocytes were resuspended with 1 ml RPMI+FCS. Cell viability by trypan blue staining was above 90%. For intrahepatic lymphocytes, livers were crushed through a stainless mesh (size 60, Sigma) and the cell suspension was placed in a 50-ml tube for 5 min. Lymphoprep (10 ml, Ficoll, Axis-Shield PoC AS, Oslo, Norway) was placed under similar volume of cell suspension in 50-ml tubes. Tubes were centrifuged at 1800 rpm for 18 min. Cells in the interface were collected and centrifuged at 1800 rpm for 10 min, to obtain a pellet of cells depleted of hepatocytes to a final volume of 250 μl. Approximately 1×10^6 cells/mouse liver, were recovered.
For ConA induced hepatitis experiments, flow cytometry was performed immediately following splenocyte and hepatic lymphocyte isolation using 1×10^6 lymphocytes in 100 μl PBS with 0.1% BSA. To determine the percentage of NKT lymphocytes, FITC anti-mouse CD3 and PE anti-mouse NK1.1 antibodies were used (eBioscience, USA). CD4 and CD8 subsets were detected using FITC anti-mouse CD3 and PE-anti-mouse CD4 or CD8 antibodies. Cells were incubated for 30 min at 4° C. in the dark, washed, and resuspended in 200 μl of PBS with 0.1% BSA. Analytical cell sorting was performed for 1×10^6 cells from each group using a fluorescence-activated cell sorter (FACSTAR plus, Becton Dickinson). Only live cells were counted, and unstained cells served as controls for background fluorescence. Gates were set on the forward and side scatter to exclude dead cells and red blood cells. Data were analyzed using either the Consort 30 two-color contour plot program (Becton Dickinson, Oxnard, Calif.) or the CELLQuest 25 program.
as §3

[5] = tested on: IL-10; experiment: Serum IL-10 by ELISA in ConA induced hepatitis; type: in vivo, mice; conditions: for serum IL-10: intraperitoneal
Description: as §2

[6] = B6 mice, intraperitoneal, Con A hepatitis, p<0.05
[7] = B6 mice, oral administration, 20 h after Con A injection, vs control p<0.01
[8] = ConA induced hepatitis, C57Bl/6 mice, intraperitoneal, 10 μg/mice
[9] = ConA induced hepatitis, C57Bl/6 mice, intraperitoneal, low dosage 1 μg/mice
[10] = B6 mice, intraperitoneal, 8 h, p<0.05
[11] = B6 mice, oral administration, p<0.05

CCCCCCCCCCCCCC=CC(O)C(CO[C@@H]1OC(CO)[C@@H](O)C(O)C1O)NC(=S)NC12CC3CC(CC(C3)C1)C2 (stereo in doubt) [ALIB-97, N-adamantyl-N′-glucosylsphingosine thiourea]
serum AST ([1]; day 30, 15 μg per os daily): 289 u/L
serum ALT ([1]; day 30, 45 μg per os daily, vehicle group A 370, p<0.05): 165 u/L
serum AST ([1]; day 30, 45 μg per os daily): 124 u/L
reduction of serum ALT levels [2, 6]: more than 60%
reduction of serum AST levels [2, 6]: more than 60%
serum ALT levels [2, 7]: significantly reduced
serum AST levels [2, 7]: significantly reduced
enzyme levels (serum ALT and AST) ([2]; CD1d−/− mice, intraperitoneal): did not significantly alter
serum ALT levels [2, 8]: decreased
serum AST levels [2, 8]: decreased
liver damage induced by Con A treatment ([2]; Jα18 KO mice): exacerbated
enzyme levels (serum ALT and AST) ([2]; Jα18−/− mice, intraperitoneal): did not significantly alter
serum IFN-γ levels ([3]; B6 mice, intraperitoneal): marked decrease
serum IFN-γ levels ([3]; B6 mice, oral administration, after 20 hours, vs control p<0.01): significant decrease
serum IFN-γ levels ([3]; CD1d−/− KO mice, intraperitoneal): did not significantly alter
IFNγ serum levels [3, 9]: decrease
serum IFN-γ levels ([3]; Jα18−/− mice, intraperitoneal): substantial increase
splenic CD3/NKT cells ([4]; B6 mice, intraperitoneal, 8 h, p<0.01): significantly reduced
decrease of hepatic CD3/NKT cells [4, 10]: more than 55%
splenic CD3/CD4 cells [4, 10]: significantly reduced
splenic CD3/CD4 cells ([4]; B6 mice, intraperitoneal, 20 h): not affected
increase of hepatic CD3/CD4 cells ([4]; B6 mice, intraperitoneal, 20 h, p=0.01): 33%
hepatic CD3/CD8 lymphocytes ([4]; B6 mice, oral administration): unaffected
decrease in hepatic CD3/NK1.1 lymphocytes ([4]; B6 mice, oral administration, after 8 hours, p<0.05): 73%
increase of splenic CD3/NK1.1 lymphocytes [4, 11]: > 100%
reduction of splenic CD3/CD8 cells [4, 11]: 30%
reduction of splenic CD3/CD4 cells ([4]; B6 mice, oral administration, p=0.07): 23%
decrease in hepatic CD3/CD4 lymphocyte ratio ([4]; B6 mice, oral administration, p=0.08): 20%
intrahepatic NKT cell levels [4, 9]: decrease
intrahepatic/peripheral ratio of NKT cells [4, 9]: decrease
peripheral/intrahepatic ratio of the CD4/CD8 ratio [4, 9]: increase
serum IL-10 ([5]; B6 mice): increased
IL-10 serum levels ([5]; B6 mice, oral administration, after 20 hours): Decreased
serum IL-10 ([5]; CD1d−/− mice): increased
serum IL-10 ([5]; Jα18−/− mice): increased
